pIC50: −log10 of the molar value.
Experiments:
physchem = conditions: 0.01 M HCl, pH 2
Plasmodium falciparum [1] = system: Plasmodium falciparum
Description: (§1) Antimalarial activity against drug-sensitive Plasmodium falciparum NF54

[2] = Apparent Cmax in GFP-transfected Plasmodium berghei ANKA infected mouse at 40 mg/kg, po qd for 4 days; format: ADME, organism-based; set-up: dose 40 mg/kg, route oral; conditions: in vivo
Plasmodium falciparum [3] = test: microbe, parasite or virus in culture; conditions: K1
Description: Antimalarial activity against multidrug-resistant Plasmodium falciparum K1

Plasmodium berghei [4] = test: Antimalarial activity against GFP-transfected Plasmodium berghei ANKA infected in mouse assessed as reduction of parasitemia at 40 mg/kg, po qd for 4 days; format: functional
[5] = Solubility of the compound in 0.01M HCl at pH 2.5; format: physicochemical
Plasmodium berghei [6] = test: Antimalarial activity against GFP-transfected Plasmodium berghei ANKA infected in mouse assessed as mean survival days at 40 mg/kg, po qd for 4 days; format: functional
Plasmodium falciparum [7] = test: microbe, parasite or virus in culture; conditions: NF54
Description: as §1

[8] = Apparent half life in Sprague-Dawley rat at 3.6 mg/ml, po; format: ADME, organism-based; conditions: in vivo, read-out: t1/2(app) (converted)
[9] = AUC (0 to infinity) in Sprague-Dawley rat at 3.6 mg/ml, iv; format: ADME, organism-based; set-up: dose 3.6 mg/ml, route intravenous, time infinity; conditions: plasma
[10] = Apparent AUC in GFP-transfected Plasmodium berghei ANKA infected mouse at 40 mg/kg, po qd for 4 days; format: ADME, organism-based; set-up: dose 40 mg/kg, route oral; conditions: in vivo
Plasmodium falciparum [11] = test: Antimalarial activity against Plasmodium falciparum infected in po dosed SCID mouse assessed as reduction of parasitemia administered qd for 4 days; format: functional; conditions: 96 h
Plasmodium berghei [12] = test: Antimalarial activity against GFP-transfected Plasmodium berghei ANKA infected in po dosed mouse assessed as reduction of parasitemia administered qd for 4 days; format: functional; conditions: 96 h
[13] = Volume of distribution at steady state in Sprague-Dawley rat at 3.6 mg/ml, iv; format: ADME, organism-based; conditions: in vivo, read-out: Vdss
[14] = Oral bioavailability in Sprague-Dawley rat at 3.6 mg/ml; format: ADME, organism-based; conditions: in vivo
[15] = AUC (0 to infinity) in Sprague-Dawley rat at 3.6 mg/ml, po; format: ADME, organism-based; set-up: dose 3.6 mg/ml, time infinity, route oral; conditions: plasma
[16] = Apparent half life in Sprague-Dawley rat at 3.6 mg/ml, iv; format: ADME, organism-based; conditions: in vivo, read-out: t1/2(app) (converted)
[17] = Cmax in Sprague-Dawley rat at 3.6 mg/ml, po; format: ADME, organism-based; set-up: dose 3.6 mg/ml, route oral; conditions: in vivo
Plasma = test: Average plasma concentration in GFP-transfected Plasmodium berghei ANKA infected mouse at 40 mg/kg, po qd for 4 days measured after 24 hrs; format: ADME, organism-based; set-up: dose 40 mg/kg, route oral; conditions: in vivo
[18] = Plasma total clearance in Sprague-Dawley rat at 3.6 mg/ml, iv; format: ADME, organism-based
[19] = Tmax in Sprague-Dawley rat at 3.6 mg/ml, po; format: ADME, organism-based; conditions: in vivo

CC(C)(C)c1cccc(-c2ccc3ncc(-c4ccc(S(C)(=O)=O)cc4)n3n2)c1
solubility (physchem): > 100 µg/mL | IC50 (Plasmodium falciparum [1]): ND(Insoluble)

CS(=O)(=O)c1ccc(-c2cnc3ccc(-c4cccc(C(=O)N5CCNCC5)c4)nn23)cc1
Cmax [2]: 10 nM | pIC50 (Plasmodium falciparum [3]): 7.96 | MSD (Plasmodium berghei [4]): <40 days | solubility [5]: > 100 µg/mL | MSD (Plasmodium berghei [6]): 4 days | pIC50 (Plasmodium falciparum [7]): 7.82 | solubility (physchem): > 100 µg/mL

CS(=O)(=O)c1ccc(-c2cnc3ccc(-c4cccc(S(C)(=O)=O)c4)nn23)cc1
Cmax [2]: 2200 nM | pIC50 (Plasmodium falciparum [3]): 8.20 | half-life [8]: 7.08 h | MSD (Plasmodium berghei [4]): 98 days | AUC(0-inf) [9]: 24.3 µM·h | AUC at 96 h [10]: 27.8 µM·h | ED90 (Plasmodium falciparum [11]): 1.5 mg/kg | ED50 (Plasmodium berghei [12]): 1.4 mg/kg | ED90 (Plasmodium berghei [12]): 15 mg/kg | MSD (Plasmodium berghei [6]): 7 days | pIC50 (Plasmodium falciparum [7]): 8.14 | Vd [13]: 3.01 L/kg | solubility (physchem): > 100 µg/mL | bioavailability [14]: 77.7% | AUC(0-inf) [15]: 18.9 µM·h | half-life [16]: 7.15 h | Cmax [17]: 1900 nM | Cave (Plasma): 1200 nM | clearance [18]: 5.77 mL/min/kg | Tmax [19]: 3 h

From ChEMBL document CHEMBL3232977, “Medicinal chemistry optimization of antiplasmodial imidazopyridazine hits from high throughput screening of a SoftFocus kinase library: part 1” (J Med Chem, 2014)
